According to patent US20240382629A1, “HETEROBIVALENT AND HOMOBIVALENT AGENTS TARGETING FIBROBLAST ACTIVATION PROTEIN ALPHA AND/OR PROSTATE-SPECIFIC MEMBRANE ANTIGEN” (The Johns Hopkins University, priority 2021, published 2024):
Where “and” joins values, the source holds several entries; their conditions need not be identical. Identical values can stand only once.

Experiment: Biodistribution of representative compounds ([^18F]Sri-07-56, [^18F]Sri-07-52, [^18F]JHU1221823, [^18F]FAPI-74), tissue % ID/g with carrier or blocker
Format: in vivo, mouse
Details: 60 min, 20 μCi per mouse
Description: Biodistribution of Representative Compounds

N#CC1CCCN1C(=O)CNC(=O)c1ccnc2ccc(OCCCNC(=O)CCc3cn(CCC(NC(=O)c4ccc([18F])nc4)C(=O)NCCCCC(NC(=O)NC(CC(=O)O)C(=O)O)C(=O)O)nn3)cc12 (stereo not shown) [[18F]Sri-07-52]
Bladder % ID/g Mean: 1.75 % ID/g | Blood % ID/g Mean: 2.39 % ID/g | Brain % ID/g Mean: 0.09 % ID/g | Fat % ID/g Mean: 0.41 % ID/g | Femur % ID/g Mean: 2.10 % ID/g | Heart % ID/g Mean: 1.39 % ID/g | Kidney % ID/g Mean: 1.21 % ID/g | Large intestine % ID/g Mean: 1.16 % ID/g | Liver % ID/g Mean: 1.07 % ID/g | Lung % ID/g Mean: 1.46 % ID/g | Muscle % ID/g Mean: 1.40 % ID/g | Pancreas % ID/g Mean: 3.30 % ID/g | Salivary gland % ID/g Mean: 5.13 % ID/g | Small intestine % ID/g Mean: 1.57 % ID/g | Spleen % ID/g Mean: 0.74 % ID/g | Stomach % ID/g Mean: 0.68 % ID/g | Tumor % ID/g Mean: 2.27 % ID/g | Bladder % ID/g (individual mice): 1.90 % ID/g and 1.61 % ID/g | Blood % ID/g (individual mice): 2.58 % ID/g and 2.21 % ID/g | Brain % ID/g (individual mice): 0.08 % ID/g and 0.11 % ID/g | Fat % ID/g (individual mice): 0.53 % ID/g and 0.29 % ID/g | Femur % ID/g (individual mice): 1.91 % ID/g and 2.29 % ID/g | Heart % ID/g (individual mice): 1.36 % ID/g and 1.42 % ID/g | Kidney % ID/g (individual mice): 1.18 % ID/g and 1.23 % ID/g | Large intestine % ID/g (individual mice): 1.11 % ID/g and 1.21 % ID/g | Liver % ID/g (individual mice): 1.11 % ID/g and 1.04 % ID/g | Lung % ID/g (individual mice): 1.60 % ID/g and 1.32 % ID/g | Muscle % ID/g (individual mice): 1.43 % ID/g and 1.38 % ID/g | Pancreas % ID/g (individual mice): 3.34 % ID/g and 3.27 % ID/g | Salivery gland % ID/g (individual mice): 4.35 % ID/g and 5.90 % ID/g | Small intestine % ID/g (individual mice): 1.56 % ID/g and 1.57 % ID/g | Spleen % ID/g (individual mice): 0.72 % ID/g and 0.77 % ID/g | Stomach % ID/g (individual mice): 0.66 % ID/g and 0.69 % ID/g | Tumor % ID/g (individual mice): 2.44 % ID/g and 2.10 % ID/g
